{"source": "patent US5061689A", "about": "“Zinc bacitracin containing wound dressing” (Bioderm, Inc., priority 1986, dated 1991)", "test_system": "partial thickness wounds", "test": "Topically applied bacitracin zinc 3% to 9%, healing of partial thickness wounds (Example III)", "type": "in vivo, white Yorkshire pigs", "source_text": "To test the effect of bacitracin zinc on epidermal resurfacing, approximately 60 rectangular wounds measuring 7 mm wide, 10 mm long, and 0.5 mm deep were made in each of eighteen white Yorkshire pigs in the paravertebral and thoracic areas with a Castroviejo keratome. The electrokeratome was fitted with a razor blade modified so that the cutting edge was reduced to 7 mm. The wounds were separated from one another by at least 15 mm of normal skin. The bacitracin zinc was applied in impregnated foam shortly (within 5 minutes) after wounding on day 0 and once daily thereafter for 7 days. In order to rule out the possibility that wounds made in different anatomical regions heal at different rates the regions used for each treatment group varied for each animal. Two days after wounding and each day thereafter some of the wounds with surrounding normal skin were excised from each treatment group. The excisions were made with a Castroviejo keratome fitted with a 22 mm blade, set to cut at a depth of 0.7 mm. After incubating the specimens in 2N sodium bromide at 37° C. for three hours, the epidermis was separated from the dermis and the epidermal sheet (22 sq mm) was assessed for re-epithelialization as previously described. Briefly, this method is a macroscopic examination of the separated epidermis for defects. Defects are visualized as holes in the separated epidermal sheet or as a lack of epidermal continuum in the area that contain the wound. The wound is considered re-epithelialized if there are no defects in the epidermis and not re-epithelialized if there are one or more defects. To more accurately assess the effective range of bacitracin concentrations,bacitracin zinc containing ointments were prepared with concentrations ranging from 3% to 9%. The methodology employed was substantially the same as in Example I.", "data": [{"substance": "bacitracin zinc", "values": [{"measurement": "% of wounds healed", "setting": "3.0% bacitracin zinc, day 2 after wounding", "value": 0, "unit": "%"}, {"measurement": "% of wounds healed", "setting": "3.0% bacitracin zinc, day 3 after wounding", "value": 0, "unit": "%"}, {"measurement": "% of wounds healed", "setting": "3.0% bacitracin zinc, day 4 after wounding", "value": 33, "unit": "%"}, {"measurement": "% of wounds healed", "setting": "3.0% bacitracin zinc, day 5 after wounding", "value": 55, "unit": "%"}, {"measurement": "% of wounds healed", "setting": "3.0% bacitracin zinc, day 6 after wounding", "value": 90, "unit": "%"}, {"measurement": "% of wounds healed", "setting": "3.0% bacitracin zinc, day 7 after wounding", "value": 100, "unit": "%"}, {"measurement": "% of wounds healed", "setting": "4.0% bacitracin zinc, day 2 after wounding", "value": 0, "unit": "%"}, {"measurement": "% of wounds healed", "setting": "4.0% bacitracin zinc, day 3 after wounding", "value": 5, "unit": "%"}, {"measurement": "% of wounds healed", "setting": "4.0% bacitracin zinc, day 4 after wounding", "value": 45, "unit": "%"}, {"measurement": "% of wounds healed", "setting": "4.0% bacitracin zinc, day 5 after wounding", "value": 60, "unit": "%"}, {"measurement": "% of wounds healed", "setting": "4.0% bacitracin zinc, day 6 after wounding", "value": 96, "unit": "%"}, {"measurement": "% of wounds healed", "setting": "4.0% bacitracin zinc, day 7 after wounding", "value": 100, "unit": "%"}, {"measurement": "% of wounds healed", "setting": "5.0% bacitracin zinc, day 2 after wounding", "value": 0, "unit": "%"}, {"measurement": "% of wounds healed", "setting": "5.0% bacitracin zinc, day 3 after wounding", "value": 9, "unit": "%"}, {"measurement": "% of wounds healed", "setting": "5.0% bacitracin zinc, day 4 after wounding", "value": 48, "unit": "%"}, {"measurement": "% of wounds healed", "setting": "5.0% bacitracin zinc, day 5 after wounding", "value": 71, "unit": "%"}, {"measurement": "% of wounds healed", "setting": "5.0% bacitracin zinc, day 6 after wounding", "value": 95, "unit": "%"}, {"measurement": "% of wounds healed", "setting": "5.0% bacitracin zinc, day 7 after wounding", "value": 100, "unit": "%"}, {"measurement": "% of wounds healed", "setting": "5.5% bacitracin zinc, day 2 after wounding", "value": 0, "unit": "%"}, {"measurement": "% of wounds healed", "setting": "5.5% bacitracin zinc, day 3 after wounding", "value": 15, "unit": "%"}, {"measurement": "% of wounds healed", "setting": "5.5% bacitracin zinc, day 4 after wounding", "value": 55, "unit": "%"}, {"measurement": "% of wounds healed", "setting": "5.5% bacitracin zinc, day 5 after wounding", "value": 75, "unit": "%"}, {"measurement": "% of wounds healed", "setting": "5.5% bacitracin zinc, day 6 after wounding", "value": 98, "unit": "%"}, {"measurement": "% of wounds healed", "setting": "5.5% bacitracin zinc, day 7 after wounding", "value": 100, "unit": "%"}, {"measurement": "% of wounds healed", "setting": "6.0% bacitracin zinc, day 2 after wounding", "value": 0, "unit": "%"}, {"measurement": "% of wounds healed", "setting": "6.0% bacitracin zinc, day 3 after wounding", "value": 20, "unit": "%"}, {"measurement": "% of wounds healed", "setting": "6.0% bacitracin zinc, day 4 after wounding", "value": 59, "unit": "%"}, {"measurement": "% of wounds healed", "setting": "6.0% bacitracin zinc, day 5 after wounding", "value": 78, "unit": "%"}, {"measurement": "% of wounds healed", "setting": "6.0% bacitracin zinc, day 6 after wounding", "value": 98, "unit": "%"}, {"measurement": "% of wounds healed", "setting": "6.0% bacitracin zinc, day 7 after wounding", "value": 100, "unit": "%"}, {"measurement": "% of wounds healed", "setting": "6.5% bacitracin zinc, day 2 after wounding", "value": 0, "unit": "%"}, {"measurement": "% of wounds healed", "setting": "6.5% bacitracin zinc, day 3 after wounding", "value": 33, "unit": "%"}, {"measurement": "% of wounds healed", "setting": "6.5% bacitracin zinc, day 4 after wounding", "value": 65, "unit": "%"}, {"measurement": "% of wounds healed", "setting": "6.5% bacitracin zinc, day 5 after wounding", "value": 88, "unit": "%"}, {"measurement": "% of wounds healed", "setting": "6.5% bacitracin zinc, day 6 after wounding", "value": 100, "unit": "%"}, {"measurement": "% of wounds healed", "setting": "6.5% bacitracin zinc, day 7 after wounding", "value": 100, "unit": "%"}, {"measurement": "% of wounds healed", "setting": "7.0% bacitracin zinc, day 2 after wounding", "value": 0, "unit": "%"}, {"measurement": "% of wounds healed", "setting": "7.0% bacitracin zinc, day 3 after wounding", "value": 40, "unit": "%"}, {"measurement": "% of wounds healed", "setting": "7.0% bacitracin zinc, day 4 after wounding", "value": 70, "unit": "%"}, {"measurement": "% of wounds healed", "setting": "7.0% bacitracin zinc, day 5 after wounding", "value": 96, "unit": "%"}, {"measurement": "% of wounds healed", "setting": "7.0% bacitracin zinc, day 6 after wounding", "value": 100, "unit": "%"}, {"measurement": "% of wounds healed", "setting": "7.0% bacitracin zinc, day 7 after wounding", "value": 100, "unit": "%"}, {"measurement": "% of wounds healed", "setting": "7.5% bacitracin zinc, day 2 after wounding", "value": 0, "unit": "%"}, {"measurement": "% of wounds healed", "setting": "7.5% bacitracin zinc, day 3 after wounding", "value": 38, "unit": "%"}, {"measurement": "% of wounds healed", "setting": "7.5% bacitracin zinc, day 4 after wounding", "value": 68, "unit": "%"}, {"measurement": "% of wounds healed", "setting": "7.5% bacitracin zinc, day 5 after wounding", "value": 92, "unit": "%"}, {"measurement": "% of wounds healed", "setting": "7.5% bacitracin zinc, day 6 after wounding", "value": 98, "unit": "%"}, {"measurement": "% of wounds healed", "setting": "7.5% bacitracin zinc, day 7 after wounding", "value": 100, "unit": "%"}, {"measurement": "% of wounds healed", "setting": "8.0% bacitracin zinc, day 2 after wounding", "value": 0, "unit": "%"}, {"measurement": "% of wounds healed", "setting": "8.0% bacitracin zinc, day 3 after wounding", "value": 12, "unit": "%"}, {"measurement": "% of wounds healed", "setting": "8.0% bacitracin zinc, day 4 after wounding", "value": 59, "unit": "%"}, {"measurement": "% of wounds healed", "setting": "8.0% bacitracin zinc, day 5 after wounding", "value": 75, "unit": "%"}, {"measurement": "% of wounds healed", "setting": "8.0% bacitracin zinc, day 6 after wounding", "value": 90, "unit": "%"}, {"measurement": "% of wounds healed", "setting": "8.0% bacitracin zinc, day 7 after wounding", "value": 100, "unit": "%"}, {"measurement": "% of wounds healed", "setting": "9.0% bacitracin zinc, day 2 after wounding", "value": 0, "unit": "%"}, {"measurement": "% of wounds healed", "setting": "9.0% bacitracin zinc, day 3 after wounding", "value": 4, "unit": "%"}, {"measurement": "% of wounds healed", "setting": "9.0% bacitracin zinc, day 4 after wounding", "value": 33, "unit": "%"}, {"measurement": "% of wounds healed", "setting": "9.0% bacitracin zinc, day 5 after wounding", "value": 66, "unit": "%"}, {"measurement": "% of wounds healed", "setting": "9.0% bacitracin zinc, day 6 after wounding", "value": 90, "unit": "%"}, {"measurement": "% of wounds healed", "setting": "9.0% bacitracin zinc, day 7 after wounding", "value": 100, "unit": "%"}, {"measurement": "promoting epidermal resurfacing", "setting": "applied in an ointment base at concentrations of about 5% to 8%", "value": "effective agent for promoting epidermal resurfacing"}, {"measurement": "enhancement of healing", "setting": "concentration of 4%", "value": "some enhancement of healing is observed"}, {"measurement": "enhancement of healing", "setting": "higher concentrations, particularly in the range of 6.5%-7.5%", "value": "Preferred healing is observed"}]}]}
